Measurements taken from paper PMC3319098 (Journal of the American Chemical Society, 2012).

Columns and labels:
[1] = biological target: T1, bovine carbonic anhydrase (BCA) (Bos taurus, UniProt P00921); conditions: resin-bound control ligand; cited from earlier work
[2] = biological target: T1, bovine carbonic anhydrase (BCA); assay: MagLev measurement of BCA binding to ligand-functionalized PEGA beads; conditions: incubation with 0.33 mM BCA for 7 days; standard levitation buffer

T1 sequence (P00921 whole entry): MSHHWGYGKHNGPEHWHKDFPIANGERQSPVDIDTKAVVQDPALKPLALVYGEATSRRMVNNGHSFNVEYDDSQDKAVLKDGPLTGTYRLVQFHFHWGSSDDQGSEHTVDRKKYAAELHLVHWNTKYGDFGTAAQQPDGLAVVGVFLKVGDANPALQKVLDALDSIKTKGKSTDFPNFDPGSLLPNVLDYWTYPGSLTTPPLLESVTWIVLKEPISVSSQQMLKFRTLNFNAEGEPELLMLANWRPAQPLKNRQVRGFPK

- decrease in the levitation height of functionalized beads [2]: < 0.1 mm
Compound: CN(C)S(=O)(=O)c1ccc(C(=O)O)cc1 [sulfonamide 2, 4-dimethylsulfamoylbenzoic acid]
- association with BCA [1]: should not associate measurably
